According to patent US5049372A, “Anticancer activities in a host by increasing blood and plasma adenosine 5'-triphosphate (ATP) levels” (priority 1988, dated 1991):

Experiments:
[1] = system: CAPAN-1 xenografts; test: Arrest of growth of CAPAN-1 xenografts in athymic nu/nu mice (Table 2); type: in vivo, human; settings: 1 ml of 50 mM i.p.
Protocol: The tumor cell lines employed were CT26, a mouse undifferentiated, aggressive colon carcinoma, and CAPAN-1, a well-differentiated human pancreatic adenocarcinoma. […] The cells are shown to be free of Mycoplasma contamination. Cells are cultured at 37° C. in a humidified atmosphere of 5% CO2 /95% air in MEM supplemented with antibiotics (100 units of penicillin per ml and 100 μg streptomycin per ml), L-glutamine (2 mM), non-essential amino acids (0.1 mM), sodium pyruvate (1 mM), and 10% fetal bovine serum.
In the tests, females and males CB6F1 mice (a standard F1 hybrid of BALB/C and C57BL/6) obtained from Jackson Laboratories, Bar Harbor, Maine and athymic outbred NCr nu/nu mice (males and females) from the Department of Radiation Medicine, Massachusetts General Hospital, Boston, Mass. 02114 are used. All the mice are kept for at least two weeks before inoculation of the tumors and the start of treatment and are 7-9 weeks old (CB6F1) or 6-7 weeks old (athymic nu/nu) at the start of the procedure. Animals weigh 20-25 g (females) or 23-28 g (males), are housed 5-12 per cage, and have ad libitum access to food and water.
Tumor cells are removed from subconfluent cultures by a mild trypsin-EDTA treatment, the cell pellet is washed once with MEM without serum and the cells are suspended at the desired cell numbers in PBS (phosphate-bufferedsaline, 8 g NaCl, 0.2 g KCl, 1.15 g Na2 HPO4.7H2 O, and 0.2 g KH2 PO4 per liter). Cell suspensions are shown to be at least 90% viable by trypan blue exclusion. Mice are injected subcutaneously in the right hind footpad with tumor cells suspended in 50 μl of PBS. The regular protocol (unless otherwise stated) consists of daily i.p. injections of 1 ml of 0.85% NaCl solution or 1 ml of 50 mM of AMP, ADP, or ATP in 0.85% NaCl (from stock solutions adjusted to pH 6.2) starting one day after tumor inoculation and given for ten consecutive days.
Injections are administered with 30 gauge needles and the mice are lightly anesthetized with ether. The mice are weighed before the start of treatment and once a week during and after treatment. After the tumors become palpable, tumor sizes are determined every three days. The animals are sacrificed, tumors are excised and weighed before they reach 10% of the animals' weight.
The effects of AMP, ADP, and ATP on human tumor xenografts in nude mice were evaluated utilizing the pancreatic ductal adenocarcinoma CAPAN-1 (see Kyriazis AP, Kyriazis AA, Scarpelli DG, Fogh J, Rao SM, Lepera R., "Human Pancreatic Adenocarcinoma Line CAPAN-1 in Tissue Culture and the Nude Mouse", Am. J. Pathol., 1982, 106, 250-260).
Treatment schedules consist of single daily i.p. injections for 10 consecutive days, starting one day after tumor inoculation. Tumor burden is relatively low (0.5-1×10^5 cells implanted) and tumor growth is slow (tumors became palpable 4-6 weeks after inoculation).

[2] = system: CT26 colon adenocarcinoma; test: Growth inhibition of footpad CT26 colon adenocarcinoma in CB6F1 mice, second series (FIGS. 2 and 3); type: in vivo, mouse; settings: for Inhibition of tumor growth, schedule ending before inoculation: 12 consecutive days, ending one day before tumor inoculation; for Anticancer activities against established footpad CT26 colon adenocarcinoma: CB6F1 mice, in words; for Deaths before stated day after tumor inoculation: FIG. 2 experiment, palpable CT26 tumors, 10 animals per group; for Inhibition of growth of palpable CT26 tumors (in words): daily i.p. in 2.2 ml saline, pH 6.2, 12 days, starting after tumors palpable, equimolar amounts
Protocol: A further series of tests are conducted whereby tumors are inoculated by injections of 2.5×10^5 CT26 cells (over 90% viability) in 50 μl of phosphate-buffered saline into the right hind footpad of CB6F1 mice. The treatments were initiated at a variety of times after inoculation of the tumors. The injection schedules started either 1 or 5 days after tumor inoculation when none of the tumors are palpable or when the tumors are clearly palpable (average calculated weight of 100 mg), which occur in 100% of the inoculated mice after 8-11 days. Mice are randomized, divided into groups, and injected daily with 2.2 ml of saline, adenosine, AMP, or ATP (compounds are in sterile saline solutions at concentrations of 25 mM with AMP and ATP solutions adjusted to pH 6.2). Injections are administered intraperitoneally with 30 gauge needles and the mice are lightly anesthetized with […]. The mice are weighed and tumor sizes measured before the start of the treatment schedule and every three days during and after the treatment schedule. These determinations are performed before injections during the treatment period.
In particular, see FIG. 2. FIG. 2 illustrates inhibition of tumor growth (---) and host weight loss (-) in tumor-bearing mice by treatment with adenine nucleotides. Mice (CB6F1, 8 week old males) bearing palpable CT26 footpad tumors (on day 9 after tumor inoculation) are treated with saline (.smallcircle.), adenosine (o), AMP (Δ), or ATP (.quadrature.) as described herein. An untreated group is also included (x). Arrows indicate days of injection.
The magnitude of the antitumor activities of AMP and ATP depends to a small extent on the pH of the solution administered intraperitoneally. This property is probably related to the number of negative charges on the phosphate groups (the pKa of the secondary phosphate is around 6.6). AMP and especially ATP have some buffering capacity, and at a pH below 6.6 they carry a smaller net charge than at a physiological pH. The lower charge of these molecules enhances the initial (first hour) transport of AMP and ATP across the peritoneal membrane and into the systemic circulation (see Torres, et al., 1978, Pharmacol., 17, 330-340). […] The treatment schedule of palpable CT26 tumors which is illustrated in FIG. 2 consistently yields 10-20% of "cures". These mice remain tumor-free for at least two months.
FIG. 3 further illustrates inhibition of host weight loss in tumor-bearing animals by treatment with adenine nucleotides. Mice (CB6F1, males, 7 weeks old, in A, 10 weeks old in B, […]) with saline (.smallcircle.), adenosine (o), AMP (Δ), or ATP (.quadrature.) are initiated 1 day (A), 5 days (B), or 9 days after tumor inoculation (when all the tumors were palpable) (C). Arrows indicate days of injection. Experimental procedures were outlined in the text.

[3] = experiment 4, 11 F, 0.5 × 10^5 cells, 10 weeks
[4] = experiment 5, 10 F, 0.5 × 10^5 cells, 9 weeks

Row | Compound | Arrested tumors/implanted tumors [1, 3] | Arrested tumors/implanted tumors [1, 4] | Inhibition of tumor growth, schedule ending before inoculation [2] | Anticancer activities against established footpad CT26 colon adenocarcinoma [2] | Deaths before stated day after tumor inoculation [2] | Inhibition of growth of palpable CT26 tumors (in words) [2] | Inhibition of tumor growth relative to ATP ([2]; treatment initiated one day after tumor inoculation) | Arrested tumors/implanted tumors ([1]; experiment 2, 5 F, 1 × 10^5 cells, 7 weeks) | Arrested tumors/implanted tumors ([1]; experiment 3, 5 F, 1 × 10^5 cells, 6 weeks) | Inhibition of tumor growth, palpable tumors, relative to AMP ([2]; applied to palpable tumors (FIG. 2))
1 | Nc1ncnc2c1ncn2[C@@H]1O[C@H](COP(=O)(O)O)[C@@H](O)[C@H]1O [AMP, adenosine 5'-monophosphate] | 7/11 | 6/10 | No inhibition of tumor growth | exhibit significant anticancer activities | No deaths occurred before day 22 | significantly inhibit the growth of this fast-growing tumor | as effective as ATP in inhibiting tumor growth |  |  | 
2 | Nc1ncnc2c1ncn2[C@@H]1O[C@H](COP(=O)(O)OP(=O)(O)OP(=O)(O)O)[C@@H](O)[C@H]1O [ATP, adenosine 5'-triphosphate] | 8/11 | 8/10 | No inhibition of tumor growth | exhibit significant anticancer activities | No deaths occurred before day 22 | significantly inhibit the growth of this fast-growing tumor |  | 4/5 | 3/5 | more pronounced than that obtained with AMP
